Experimental data reported in publication PMC9569649, “Naked and Decorated Nanoparticles Containing H2S-Releasing Doxorubicin: Preparation, Characterization and Assessment of Their Antitumoral Efficiency on Various Resistant Tumor Cells” (International Journal of Molecular Sciences, 2022).
≈ marks a conversion by molar mass, not a printed value. Counter-ions that a name gives are not always drawn. Like-named read-outs stand apart in the source and are kept apart here.

Legend:
[1] = system: U-2OS/DX580 cells; assay: Acute cytotoxicity (release of LDH); format: cell-based, human; conditions: U-2OS/DX580 (resistant); 24 h, 5 µM
Method: (§1) In each of the following experimental sets, cells were incubated with specific dilutions of NPs to reach a final concentration of 5 μM H2S-DOXO, or with 5 μM DOXO or H2S-DOXO, as reference. Samples under study were: free DOXO, free H2S-DOXO, NP-H2S-DOXO 3% PVP, and HA-NP-CTAB-H2S-DOXO. Acute cytotoxicity. Culture medium from 2 × 10^6 cellule was centrifuged at 12,000 g for 15 min to pellet cell debris, while cells were washed with PBS twice, detached with trypsin/EDTA (0.05/0.02% v/v), rinsed in 0.2 mL of 82.3 mM triethanolamine phosphate-HCl (pH 7.6), and sonicated in ice with 10 s (100 W, Sonicator Labsonic); 5 μL of cell lysate was used to measure the intracellular protein content (BCA1 kit). The activity of extracellular lactate dehydrogenase (LDH), considered as an index of DOXO acute cell damage, was measured on 50 μL of cell culture medium, incubated at 37 °C with […]. The same assay was performed on 5 μL of cell lysate, to measure intracellular LDH. The kinetics of NADH oxidation was followed for 6 min measuring the absorbance at 340 nm with a Synergy HTX 96-well reader (Bio-Tek Instruments). The kinetics was linear overtime. Results were expressed as % extracellular LDH/total (extracellular+intracellular) LDH.

[2] = system: MCF-7 cells; assay: Acute cytotoxicity (release of LDH); format: cell-based, human; conditions: MCF-7 (sensitive); 24 h, 5 µM
Method: as §1

[3] = system: U-2OS cells; assay: Acute cytotoxicity (release of LDH); format: cell-based, human; conditions: U-2OS (sensitive); 24 h, 5 µM
Method: as §1

[4] = system: MDA-MB-231 cells; assay: Acute cytotoxicity (release of LDH); format: cell-based, human; conditions: MDA-MB-231 (resistant); 24 h, 5 µM
Method: as §1

[5] = system: K7M2 cells; assay: Cell viability (ATPLite); format: cell-based, murine; conditions: K7M2 (resistant); 72 h, 5 µM
Method: (§2) In each of the following experimental sets, cells were incubated with specific dilutions of NPs to reach a final concentration of 5 μM H2S-DOXO, or with 5 μM DOXO or H2S-DOXO, as reference. Samples under study were: free DOXO, free H2S-DOXO, NP-H2S-DOXO 3% PVP, and HA-NP-CTAB-H2S-DOXO. Viability. 1 × 10^5 cells were seeded in 96 well plates and incubated for 72 h with DOXO, H2S-DOXO or the different NPs. Cell viability was evaluated using the ATPLite kit (PerkinElmer, Waltham, MA), as per manufacturer’s instructions, using a Synergy-HTX 96-well reader (Bio-Tek Instruments, Winooski, VT). The relative luminescence units (RLUs) of the untreated cells were considered 100%; the RLUs of the other experimental conditions were expressed as percentage versus untreated cells.

[6] = system: JC cells; assay: Cell viability (ATPLite); format: cell-based, murine; conditions: JC (resistant); 72 h, 5 µM
Method: as §2

[7] = system: U-2OS/DX580 cells; assay: Cell viability (ATPLite); format: cell-based, human; conditions: U-2OS/DX580 (resistant); 72 h, 5 µM
Method: as §2

[8] = system: MDA-MB-231 cells; assay: Cell viability (ATPLite); format: cell-based, human; conditions: MDA-MB-231 (resistant); 72 h, 5 µM
Method: as §2

[9] = system: K7M2 tumor; parameters: method as in PMID 31047947; conditions: cited from earlier work
[10] = system: DU-145 cells; conditions: cited from earlier work
[11] = system: K7M2 cells; assay: Acute cytotoxicity (release of LDH); format: cell-based, murine; conditions: K7M2 (resistant); 24 h, 5 µM
Method: as §1

[12] = system: JC cells; assay: Acute cytotoxicity (release of LDH); format: cell-based, murine; conditions: JC (resistant); 24 h, 5 µM
Method: as §1

[13] = H2S-DOXO stability in the presence of microemulsion ingredients (RP-HPLC); format: physicochemical; conditions: water/acetonitrile 60/40 v/v; for Residual Concentration % t24: 24 h
Method: The chemical stability of H2S-DOXO in water/acetonitrile 60/40 v/v in the presence of µE ingredients, at the same ratio (w/w) used in the µE, was tested to select the suitable ingredients and to ensure the integrity of H2S-DOXO into the formulation. In Table 3, the stability at t0 and t24 h (t24) is expressed as percent of residual concentration in the presence of ingredients compared with that without ingredients at t0 (100%).
H2S-DOXO stability in water/acetonitrile (60/40 v/v ratio) in the presence of NaTC, NaGC, lecithin (phosphatidylcoline 95–98%), ST, CTAB, and Cremophor®RH60 was determined at t0 and after 24 h (t24) by RP-HPLC comparing the drug concentration with that in water/acetonitrile solution at t0, assuming it as 100%.

[14] = H2S-DOXO solubility in aqueous and organic solvent; format: physicochemical; conditions: room temperature (22–23 °C)
Method: The solubility of H2S-DOXO in water/acetonitrile (60/40 v/v ratio), methanol, 0.1 M pH 7.2 phosphate buffer, propylene glycol, and benzyl alcohol was determined as follows: an excess of H2S-DOXO was added to the organic or aqueous solution (1 mL); after 2-h equilibration at room temperature (22–23 °C) in a sealed vial under 600 rpm magnetic stirring, the suspension was centrifuged at 1397× g for 10 min, and the supernatant solution analyzed by RP-HPLC. The time needed to reach equilibrium solubility was determined by analyzing samples of the equilibrating solution at different time points to establish constant drug solubility.

[15] = H2S-DOXO stability in solvents (RP-HPLC); format: physicochemical; conditions: 30-day storage at 4 °C, vs t0 (100%)
Method: The chemical stability of H2S-DOXO in water/acetonitrile 60/40 v/v (mobile phase for HPLC analysis) and in methanol (solvent used for extraction from NPs to determining EE%) was tested by RP-HPLC after 30-day storage (t30). In Table 2, the stability was expressed as a percentage of residual concentration at t30 compared with the concentration at t0 (100%).
H2S-DOXO stability in water/acetonitrile (60/40 v/v ratio) and methanol was determined after 30-day (t30) storage at 4 °C following the drug concentration over time by RP-HPLC and comparing it with the concentration at t0, assuming it as 100%.

[16] = In vitro drug release (dialysis method); format: physicochemical; conditions: PBS pH 7.4, 37 °C, reference: 20% propylene glycol aqueous solution
Method: In vitro drug release. Release of H2S-DOXO from NPs was evaluated using the dialysis method. An aliquot of HA-NP-CTAB-H2S-DOXO was placed in a dialysis bag, and the dialysis bag, sealed at the ends, was immersed into 40 mL of phosphate buffered saline (PBS, pH 7.4) at 37 °C stirring at 100 rpm. At predetermined time intervals, 1 mL PBS was withdrawn and replaced with an equal volume of fresh PBS. Release was monitored for 5 h. The overtime released H2S-DOXO was analyzed by RP-HPLC. As a reference, a 20% propylene glycol aqueous solution of H2S-DOXO was used.

[17] = parameters: method as in PMID 23973213; conditions: human serum; pseudo-first-order kinetics; cited from earlier work
[18] = system: DU-145 prostate cancer cell line; parameters: method as in PMID 29607467; conditions: androgen-independent, DOXO-resistant DU-145; cited from earlier work
[19] = system: MCF-7 cells; assay: Cell viability (ATPLite); format: cell-based, human; conditions: MCF-7 (sensitive); 72 h, 5 µM
Method: as §2

[20] = system: U-2OS cells; assay: Cell viability (ATPLite); format: cell-based, human; conditions: U-2OS (sensitive); 72 h, 5 µM
Method: as §2

[21] = 3-week injection, nude mice with subcutaneous DU-145 cells

**Q.** What does the source list for COc1cccc2c1C(=O)c1c(O)c3c(c(O)c1C2=O)C[C@@](O)(C(=O)CO)C[C@@H]3O[C@H]1C[C@H](N)[C@H](O)[C@H](C)O1 [DOXO, doxorubicin hydrochloride]?
**A.** acute toxicity, release of LDH [1]: devoid of any cytotoxic effects; acute toxicity, release of LDH [2]: comparable; acute toxicity, release of LDH [3]: comparable; acute toxicity, release of LDH [4]: devoid of any cytotoxic effects; subacute toxicity, reduced cell viability [5]: ineffective; subacute toxicity, reduced cell viability [6]: ineffective; subacute toxicity, reduced cell viability [7]: ineffective; subacute toxicity, reduced cell viability [8]: ineffective; tumor growth ([9]; K7M2 tumors (CD44- and Pgp-overexpressing)): neither DOXO nor Caelyx® reduced the growth of these tumors; apoptosis / caspase-3 activation in the tumor ([9]; K7M2 tumors): nor did they induce apoptosis in the tumor; tolerability / safety profile ([10]; mouse, in vivo, sc): associated with weight loss and cardiotoxicity; acute toxicity, release of LDH [11]: devoid of any cytotoxic effects; acute toxicity, release of LDH [12]: devoid of any cytotoxic effects

**Q.** Which “acute toxicity, release of LDH” value [1] does the source give for COc1cccc2c1C(=O)c1c(O)c3c(c(O)c1C2=O)C[C@@](O)(C(=O)COC(=O)c1ccc(-c2ssc(=S)c2-c2ccccc2)cc1)C[C@@H]3O[C@H]1C[C@H](N)[C@H](O)[C@H](C)O1 [H2S-DOXO, doxorubicin 14-[4-(4-phenyl-5-thioxo-5H-[1,2]dithiol-3-yl)]-benzoate] here?
**A.** induced a significant release of LDH

**Q.** What about the “acute toxicity, release of LDH” value [2] of the same compound?
**A.** comparable

**Q.** What about the “acute toxicity, release of LDH” value [3] of the same compound?
**A.** comparable

**Q.** And the “acute toxicity, release of LDH” value [4]?
**A.** induced a significant release of LDH

**Q.** And the “Residual Concentration % t24” value ([13]; in presence of CTAB)?
**A.** 100%

**Q.** What about the “Residual Concentration % t0” value ([13]; in presence of CTAB) of the same compound?
**A.** 100%

**Q.** And the “Residual Concentration % t24” value ([13]; in presence of Cremophor RH60)?
**A.** 0%

**Q.** And the “Residual Concentration % t0” value ([13]; in presence of Cremophor RH60)?
**A.** 5%

**Q.** What about the “Residual Concentration % t24” value ([13]; in presence of Epikuron 200) of the same compound?
**A.** 100%

**Q.** And the “Residual Concentration % t0” value ([13]; in presence of Epikuron 200)?
**A.** 100%

**Q.** What about the “Residual Concentration % t24” value ([13]; in presence of NaGC) of the same compound?
**A.** 98%

**Q.** And the “Residual Concentration % t0” value ([13]; in presence of NaGC)?
**A.** 100%

**Q.** What about the “Residual Concentration % t24” value ([13]; in presence of NaTC) of the same compound?
**A.** 0%

**Q.** What about the “Residual Concentration % t0” value ([13]; in presence of NaTC) of the same compound?
**A.** 34%

**Q.** What about the “Residual Concentration % t24” value ([13]; in presence of ST) of the same compound?
**A.** 14%

**Q.** And the “Residual Concentration % t0” value ([13]; in presence of ST)?
**A.** 44%

**Q.** And the “Solubility” value ([14]; benzyl alcohol)?
**A.** 1400 ± 700 µg/mL (≈ 1.64 mM)

**Q.** What about the “Solubility” value ([14]; methanol) of the same compound?
**A.** 3820 ± 300 µg/mL (≈ 4.46 mM)

**Q.** What about the “Solubility” value ([14]; pH 7.2 phosphate buffer (0.1 M)) of the same compound?
**A.** 30 ± 10 µg/mL (≈ 0.035 mM)

**Q.** And the “Solubility” value ([14]; propylene glycol)?
**A.** 2830 ± 300 µg/mL (≈ 3.31 mM)

**Q.** What about the “Solubility” value ([14]; water/acetonitrile (60/40 v/v)) of the same compound?
**A.** 3400 ± 500 µg/mL (≈ 3.97 mM)

**Q.** And the “Residual Concentration % t30” value ([15]; methanol)?
**A.** 98.7%

**Q.** And the “Residual Concentration % t30” value ([15]; water/acetonitrile (60/40 v/v))?
**A.** 97.3%

**Q.** What about the “H2S-DOXO release in 5 h” value [16] of the same compound?
**A.** ~100%

**Q.** And the t1/2 of hydrolysis [17]?
**A.** 2.8 h

**Q.** And the cytotoxicity [18]?
**A.** high cytotoxicity

**Q.** And the intracellular accumulation [18]?
**A.** good intracellular accumulation

**Q.** What about the “subacute toxicity, reduced cell viability” value [5] of the same compound?
**A.** significantly more effective than DOXO

**Q.** What about the “subacute toxicity, reduced cell viability” value [6] of the same compound?
**A.** significantly more effective than DOXO

**Q.** What about the “subacute toxicity, reduced cell viability” value [7] of the same compound?
**A.** significantly more effective than DOXO

**Q.** And the “subacute toxicity, reduced cell viability” value [19]?
**A.** did not offer any further advantage compared to DOXO

**Q.** And the “subacute toxicity, reduced cell viability” value [20]?
**A.** did not offer any further advantage compared to DOXO

**Q.** What about the “subacute toxicity, reduced cell viability” value [8] of the same compound?
**A.** significantly more effective than DOXO

**Q.** And the “percentage of apoptotic cells” value [10, 21]?
**A.** an increase in the percentage of apoptotic cells

**Q.** What about the “reduction in tumor volume” value [10, 21] of the same compound?
**A.** 60%

**Q.** What about the “tolerability / safety profile” value ([10]; nude mice with subcutaneous DU-145 cells) of the same compound?
**A.** well tolerated and had a better safety profile

**Q.** What about the “acute toxicity, release of LDH” value [11] of the same compound?
**A.** induced a significant release of LDH

**Q.** And the “acute toxicity, release of LDH” value [12]?
**A.** induced a significant release of LDH
